Measured values reported in PMC7305224, “Mutually stabilizing interactions between proto-peptides and RNA” (Nature Communications, 2020).

How the values were obtained:
[1] = tested on: RNA duplex 2 (5′-rArArArArUrUrUrArUrArUrUrArUrUrA-3′ and 5′-rUrArArUrArArUrArUrArArArUrUrUrU-3′); assay: RNA thermal denaturation (Tm) by UV hyperchromicity, RNA duplex 2; format: binding
Procedure: Prior to Tm analyses, RNA samples were annealed in the appropriate buffer by heating to 75 °C and slowly cooling to room temperature. Depsipeptide/peptide was added to the annealed RNA and incubated at 4 °C for 20 min prior to carrying out the analysis. For analyses involving dry-down reaction mixtures, the Tm was determined by monitoring fluorescence increase upon melting of a fluorophore/quencher-labeled RNA duplex (5′-rCrGrArUrUrUrArGrCrG-/3IABkFQ/-3′ and 3′-rGrCrUrArArArUrCrGrC-FAM-5′) using a BioRad CFX Connect rtPCR instrument with a heating ramp of 1 °C/min and 20 μL final sample volumes. For analyses involving pure, synthetic compounds, the Tm of the RNA was determined by monitoring UV hyperchromicity at 260 nm using a Varian Cary Bio-100 spectrophotometer, with a heating ramp of 1 °C/min and 0.5- or 1-cm pathlength cells. The following RNA sequences were used: RNA duplex 1 = 5′-rCrGrCrUrArArArUrCrG-3′ and 5′-rCrGrArUrUrUrArGrCrG-3′; RNA duplex 2 = 5′-rArArArArUrUrUrArUrArUrUrArUrUrA-3′ and 5′-rUrArArUrArArUrArUrArArArUrUrUrU-3′; RNA duplex 3 = 5′-rArArCrGrUrArUrArCrGrUrU-3′ (palindromic); and H26a RNA = 5′-rArUrGrArGrUrArArCrCrGrUrArArGrGrUrGrArArArUrU-3′. RNA was present in each assay at a final concentration of 2.5 μM of the folded structure (2.5 μM each strand for duplex 1 and duplex 2, 5.0 μM palindromic strand for duplex 3, 2.5 μM strand for H26a RNA). Tm values were determined by nonlinear fitting of the melting curves using GraphPad Prism 8.2.1 for duplex 1 and H26a, or by finding the maximum of the first derivative of the curve using the Varian Cary Bio-100 software for duplex 2 and duplex 3. Both methods of determining the Tm gave similar values for a given denaturation curve.

[2] = tested on: RNA duplex 1; assay: Depsipeptide hydrolysis assay with or without RNA duplex 1, SimFit modelling; format: physicochemical
Excerpt: Fig. 5 RNA increases the hydrolytic lifetime of a cationic depsipeptide. a A schematic of depsipeptide-RNA interactions leading to increased depsipeptide lifetimes. The free depsipeptide is hydrolyzed with a pseudo-first rate constant, khyd-free. Binding of the depsipeptide to RNA is governed at equilibrium by kassoc/kdissoc. The pseudo-first rate constant for of depsipeptide hydrolysis within the depsipeptide–RNA complex is khyd-complex. Under conditions where complex formation is favorable and khyd-complex < khyd-free, the presence of RNA will increase the depsipeptide lifetime. b HPLC traces (270 nm) showing hydrolysis of depsipeptide 9 (25 μM) at various time points in the presence or absence of RNA duplex 1 at 37 °C in pH 7.3 buffer. The C-terminal fragment of the hydrolyzed depsipeptide is not observed because it lacks the Aba chromophore. (c) Time courses for hydrolysis of depsipeptide 9 (25 μM) with varying concentrations of the RNA duplex 1. The curves shown are from simultaneous fits of data to the model given in panel a using SimFit[44]. During fitting, we fixed kassoc = 1 × 10^5 M^−1 s^−1. Therefore, three rate constants were fit, with values obtained by the fitting of: khyd-free = 1.1 × 10^−4 s^−1, khyd-complex = 3.2 × 10^−6 s^−1, and kdissoc = 8.3 × 10^−3 s^−1. d Kinetic profile of the hydrolysis reaction of depsipeptide 9 (25 μM) in the presence of 7 μM RNA duplex 1. […] The extent of depsipeptide hydrolysis and RNA hybridization were then measured. Data are shown as a scatter plot of two independently repeated experiments.
(§1) To determine the extent of depsipeptide hydrolysis, the depsipeptide (25 μM) was incubated at 37 °C in buffer (100 mM HEPES, 10 mM NaCl, pH 7.3) in the presence or absence of 10mer RNA duplex 1 (5′-rCrGrArUrUrUrArGrCrG-3′ and 3′-rGrCrUrArArArUrCrGrC-5′) at various concentrations, or with single-stranded RNA (5′-rCrGrArUrUrUrArGrCrG-3′, 100 μM), for up to 100 h. Prior to adding depsipeptide to the reaction from its stock solution, the RNA was annealed by heating to 75 °C for 5 min, and then slowly cooling to room temperature. Reaction aliquots were quenched using 3% TFA and frozen or immediately analyzed by HPLC (270 nm). The relative concentrations of intact and hydrolyzed depsipeptide were quantified by integrating the corresponding peaks in HPLC traces. The kinetic profiles of depsipeptide hydrolysis were fit using SimFit-32 (provided by G. von Kiedrowski) according to the reaction scheme shown in Fig. 5a.
Data from the nine independent depsipeptide hydrolysis reactions carried out with different concentrations of RNA duplex were simultaneously fit using SimFit to the reaction model shown in Fig. 5a. In the model, the free depsipeptide is subject to hydrolysis at a pseudo-first order rate governed by khyd-free. Binding of the depsipeptide to RNA according to an equilibrium determined by kassoc/kdissoc yields a depsipeptide-RNA complex, for which the pseudo-first order rate of ester hydrolysis is described by khyd-complex. During fitting, we fixed kassoc = 1 × 10^5 M^−1 s^−1, on the lower end of rates observed and expected for protein–RNA association. Therefore, three parameters were variable during the fitting, and the final rate constants determined by the fitting were: khyd-free = 1.1 × 10^−4 s^−1, khyd-complex = 3.2 × 10^−6 s^−1, and kdissoc = 8.3 × 10^−3 s^−1. […] Our model assumes a 1:1 stoichiometry for depsipeptide:RNA in the complex, and assumes the RNA is present only as a duplex (ignores steps involving RNA strand hybridization to form the duplex). The final RMS error of the fit was 5.4%. The output file obtained from the fitting is provided in the Supplementary Note.

[3] = tested on: single-stranded 10mer RNA (5′-rCrGrArUrUrUrArGrCrG-3′); assay: Depsipeptide hydrolysis assay with single-stranded RNA; format: physicochemical; details: 25 μM depsipeptide, single-stranded 10mer RNA 100 µM, 37 °C, pH 7.3 buffer, HPLC
Procedure: as §1

[4] = SimFit results output file, final NEWTON values

level of intact depsipeptide with RNA vs depsipeptide alone ([2]; 25 μM depsipeptide ± RNA duplex 1 (25 μM each strand), 37 °C, 12 h, HPLC): substantially higher levels
increase of observed depsipeptide lifetime by RNA duplex ([2]; 25 μM depsipeptide, RNA duplex 1, 37 °C, pH 7.3 buffer, HPLC): ~ 30 fold
k3 (SimFit output; khyd-complex) [2, 4]: 3.1996E-6
k1 (SimFit output; khyd-free) ([2]; SimFit results output file, final NEWTON values, R.M.S. 5.4087 %): 1.0596E-4
Kd ([2]; from fixed kassoc and calculated kdissoc, read-out: predicted dissociation constant of the depsipeptide-RNA complex): 100 nM
fold by which khyd-complex is lower than khyd-free ([2]; ratio of fitted rate constants): ~ 34 fold
increase of depsipeptide lifetime by single-stranded RNA [3]: roughly fivefold
Substance: Aba-Gly-Ala-Dab-Lys-Ala-Dab-Lys-lac-Dab-Lys-Ala-Dab-Lys-NH2 [compound 9]
RNA duplex 2 Tm ([1]; observed Tm with peptide/depsipeptide 100 µM, pH 7.0, RNA alone 33.7 ± 0.7, mean ± SD of 2-4 independent experiments): 41.8 ± 0.6 °C
RNA duplex 2 ΔTm ([1]; peptide/depsipeptide 100 μM, RNA 2.5 μM each strand, pH 7.0, 10 mM phosphate, 100 mM NaCl, mean of 2–4 replicates): 8.2 °C
kdissoc (depsipeptide–RNA complex) ([2]; SimFit fit of hydrolysis data with kassoc fixed at 1 × 10^5 M^−1 s^−1, 37 °C, pH 7.3): 0.0083 s⁻¹
k2 (SimFit output; kdissoc) [2, 4]: 8.2871E-3
